# Laboratory results reported in patent US8524766B2, “Modulators of dopamine neurotransmission” (NSAB, Filial af Neurosearch Sweden AB, Sverige, priority 2008, dated 2013).
# Where a name gives a salt, the structure may show the parent alone.
row,melting point,Structure (SMILES)
1,228 °C,"CCCNC[C@H]1COc2ccc(S(C)(=O)=O)cc2O1 (as salt: hydrochloric acid salt) [Example 3, N-{[(2S)-7-(METHYLSULFONYL)-2,3-DIHYDRO-1,4-BENZODIOXIN-2-YL]METHYL}-PROPAN-1-AMINE]"
2,204 °C,CS(=O)(=O)c1ccc2c(c1)O[C@@H](CNCCC(F)(F)F)CO2 (as salt: hydrochloric acid salt)
3,222 °C,"CCCN(C)CC1COc2ccc(S(C)(=O)=O)cc2O1 (stereo not shown) (as salt: hydrochloric acid salt) [Example 15, N-METHYL-N-{[7-(METHYLSULFONYL)-2,3-DIHYDRO-1,4-BENZODIOXIN-2-YL]METHYL}PROPAN-1-AMINE]"
4,214 °C,CC(C)CNC[C@H]1COc2ccc(S(C)(=O)=O)cc2O1 (as salt: hydrochloric acid salt)
5,208 °C,CCNC[C@H]1COc2ccc(S(=O)(=O)C(F)(F)F)cc2O1 (as salt: hydrochloric acid salt)
6,271 °C,CCNC[C@H]1COc2ccc(S(C)(=O)=O)cc2O1 (as salt: hydrochloric acid salt)

# Second part, the molecule before the results:
row,Structure (SMILES),melting point
1,"CS(=O)(=O)c1ccc2c(c1)OC(CN1CCCCC1)CO2 (stereo not shown) (as salt: hydrochloric acid salt) [Example 6, 1-{[7-(METHYLSULFONYL)-2,3-DIHYDRO-1,4-BENZODIOXIN-2-YL]METHYL}PIPERIDINE]",248 °C
2,"CCCNC[C@H]1COc2ccc(S(=O)(=O)C(F)(F)F)cc2O1 (as salt: hydrochloric acid salt) [Example 24, N-{[(2S)-7-(TRIFLUOROMETHYLSULFONYL)-2,3-DIHYDRO-1,4-BENZODIOXIN-2-YL]METHYL}PROPAN-1-AMINE]",175 °C
3,CS(=O)(=O)c1cc(F)c2c(c1)O[C@@H](CNCCC(F)(F)F)CO2 (as salt: hydrochloric acid salt),233 °C
4,"CCCN(CCC)CC1COc2ccc(S(C)(=O)=O)cc2O1 (stereo not shown) (as salt: hydrochloric acid salt) [Example 16, N-{[7-(METHYLSULFONYL)-2,3-DIHYDRO-1,4-BENZODIOXIN-2-YL]METHYL}-N-PROPYLPROPAN-1-AMINE]",182 °C
5,"CCNC[C@H]1COc2c(F)cc(S(C)(=O)=O)cc2O1 (as salt: hydrochloric acid salt) [Example 19, N-{[(2S)-5-FLUORO-7-(METHYLSULFONYL)-2,3-DIHYDRO-1,4-BENZODIOXIN-2-YL]METHYL}ETHANAMINE]",274 °C
6,CNC[C@H]1COc2c(F)cc(S(C)(=O)=O)cc2O1 (as salt: hydrochloric acid salt),260 °C
7,CS(=O)(=O)c1cc(F)c2c(c1)O[C@@H](CN1CCOCC1)CO2 (as salt: hydrochloric acid salt),251 °C
